According to the supplement of paper PMC10307832:

Experiments:
Test in all cases: relative viability (nuclei count vs DMSO), 5 days (fraction); higher = more cells survive
A-427 = system: A-427
How it was run: (§1)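 Lung cancer cell lines in 1536-well plates were dosed by pin tool the day after seeding, either with one drug alone or with a fixed anchor-drug dose plus five library-drug doses (not always all listed) in √10 steps. After 5 days, cells were fixed and their nuclei stained in one step (final 0.05% Triton X-100, 1% formaldehyde, 1 ug/ml Hoechst), then counted on 4× images. Relative viability is the nuclei count in treated wells divided by that in vehicle wells. Values are medians of duplicate plates.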

CAL-12T = system: CAL-12T
How it was run: as §1

COR-L 105 = system: COR-L 105
How it was run: as §1

EMC-BAC-2 = system: EMC-BAC-2
How it was run: as §1

HARA = system: HARA
How it was run: as §1

HCC-366 = system: HCC-366
How it was run: as §1

HCC-827 = system: HCC-827
How it was run: as §1

HOP-62 = system: HOP-62
How it was run: as §1

LCLC-103H = system: LCLC-103H
How it was run: as §1

NCI-H1395 = system: NCI-H1395
How it was run: as §1

NCI-H1437 = system: NCI-H1437
How it was run: as §1

NCI-H1755 = system: NCI-H1755
How it was run: as §1

NCI-H1792 = system: NCI-H1792
How it was run: as §1

NCI-H1915 = system: NCI-H1915
How it was run: as §1

NCI-H2009 = system: NCI-H2009
How it was run: as §1

NCI-H2228 = system: NCI-H2228
How it was run: as §1

NCI-H23 = system: NCI-H23
How it was run: as §1

NCI-H460 = system: NCI-H460
How it was run: as §1

NCI-H522 = system: NCI-H522
How it was run: as §1

NCI-H727 = system: NCI-H727
How it was run: as §1

SK-LU-1 = system: SK-LU-1
How it was run: as §1

SW 1573 = system: SW 1573
How it was run: as §1

COc1cc2nccc(Oc3ccc(NC(=O)Nc4cc(C)on4)c(Cl)c3)c2cc1OC [Tivozanib] + Cc1nc(Nc2ncc(C(=O)Nc3c(C)cccc3Cl)s2)cc(N2CCN(CCO)CC2)n1 [Dasatinib] (partner 0.075 µM)
relative viability (A-427; first compound 0.005 µM): 0.645
relative viability (A-427; first compound 0.01581 µM): 0.669
relative viability (A-427; first compound 0.05 µM): 0.699
relative viability (A-427; first compound 0.1581 µM): 0.538
relative viability (A-427; first compound 0.5 µM): 0.686
relative viability (CAL-12T; first compound 0.005 µM): 0.402
relative viability (CAL-12T; first compound 0.01581 µM): 0.527
relative viability (CAL-12T; first compound 0.05 µM): 0.481
relative viability (CAL-12T; first compound 0.1581 µM): 0.343
relative viability (CAL-12T; first compound 0.5 µM): 0.285
relative viability (COR-L 105; first compound 0.005 µM): 0.34
relative viability (COR-L 105; first compound 0.01581 µM): 0.361
relative viability (COR-L 105; first compound 0.05 µM): 0.467
relative viability (COR-L 105; first compound 0.1581 µM): 0.269
relative viability (COR-L 105; first compound 0.5 µM): 0.354
relative viability (EMC-BAC-2; first compound 0.005 µM): 0.313
relative viability (EMC-BAC-2; first compound 0.01581 µM): 0.314
relative viability (EMC-BAC-2; first compound 0.05 µM): 0.313
relative viability (EMC-BAC-2; first compound 0.1581 µM): 0.273
relative viability (EMC-BAC-2; first compound 0.5 µM): 0.237
relative viability (HARA; first compound 0.005 µM): 0.242
relative viability (HARA; first compound 0.01581 µM): 0.269
relative viability (HARA; first compound 0.05 µM): 0.286
relative viability (HARA; first compound 0.1581 µM): 0.19
relative viability (HARA; first compound 0.5 µM): 0.251
relative viability (HCC-366; first compound 0.005 µM): 0.582
relative viability (HCC-366; first compound 0.01581 µM): 0.601
relative viability (HCC-366; first compound 0.05 µM): 0.671
relative viability (HCC-366; first compound 0.1581 µM): 0.727
relative viability (HCC-366; first compound 0.5 µM): 0.587
relative viability (HCC-827; first compound 0.005 µM): 0.288
relative viability (HCC-827; first compound 0.01581 µM): 0.36
relative viability (HCC-827; first compound 0.05 µM): 0.317
relative viability (HCC-827; first compound 0.1581 µM): 0.338
relative viability (HCC-827; first compound 0.5 µM): 0.231
relative viability (HOP-62; first compound 0.005 µM): 0.638
relative viability (HOP-62; first compound 0.01581 µM): 0.668
relative viability (HOP-62; first compound 0.05 µM): 0.633
relative viability (HOP-62; first compound 0.1581 µM): 0.583
relative viability (HOP-62; first compound 0.5 µM): 0.698
relative viability (LCLC-103H; first compound 0.005 µM): 0.459
relative viability (LCLC-103H; first compound 0.01581 µM): 0.524
relative viability (LCLC-103H; first compound 0.05 µM): 0.513
relative viability (LCLC-103H; first compound 0.1581 µM): 0.433
relative viability (LCLC-103H; first compound 0.5 µM): 0.469
relative viability (NCI-H1395; first compound 0.005 µM): 0.376
relative viability (NCI-H1395; first compound 0.01581 µM): 0.407
relative viability (NCI-H1395; first compound 0.05 µM): 0.404
relative viability (NCI-H1395; first compound 0.1581 µM): 0.386
relative viability (NCI-H1395; first compound 0.5 µM): 0.371
relative viability (NCI-H1437; first compound 0.005 µM): 0.292
relative viability (NCI-H1437; first compound 0.01581 µM): 0.449
relative viability (NCI-H1437; first compound 0.05 µM): 0.38
relative viability (NCI-H1437; first compound 0.1581 µM): 0.284
relative viability (NCI-H1437; first compound 0.5 µM): 0.276
relative viability (NCI-H1755; first compound 0.005 µM): 0.356
relative viability (NCI-H1755; first compound 0.01581 µM): 0.415
relative viability (NCI-H1755; first compound 0.05 µM): 0.432
relative viability (NCI-H1755; first compound 0.1581 µM): 0.315
relative viability (NCI-H1755; first compound 0.5 µM): 0.383
relative viability (NCI-H1792; first compound 0.005 µM): 0.77
relative viability (NCI-H1792; first compound 0.01581 µM): 0.819
relative viability (NCI-H1792; first compound 0.05 µM): 0.815
relative viability (NCI-H1792; first compound 0.1581 µM): 0.843
relative viability (NCI-H1792; first compound 0.5 µM): 0.848
relative viability (NCI-H1915; first compound 0.005 µM): 0.279
relative viability (NCI-H1915; first compound 0.01581 µM): 0.3
relative viability (NCI-H1915; first compound 0.05 µM): 0.3
relative viability (NCI-H1915; first compound 0.1581 µM): 0.289
relative viability (NCI-H1915; first compound 0.5 µM): 0.272
relative viability (NCI-H2009; first compound 0.005 µM): 0.31
relative viability (NCI-H2009; first compound 0.01581 µM): 0.299
relative viability (NCI-H2009; first compound 0.05 µM): 0.333
relative viability (NCI-H2009; first compound 0.1581 µM): 0.262
relative viability (NCI-H2009; first compound 0.5 µM): 0.22
relative viability (NCI-H2228; first compound 0.005 µM): 0.431
relative viability (NCI-H2228; first compound 0.01581 µM): 0.532
relative viability (NCI-H2228; first compound 0.05 µM): 0.551
relative viability (NCI-H2228; first compound 0.1581 µM): 0.445
relative viability (NCI-H2228; first compound 0.5 µM): 0.524
relative viability (NCI-H23; first compound 0.005 µM): 0.693
relative viability (NCI-H23; first compound 0.01581 µM): 0.707
relative viability (NCI-H23; first compound 0.05 µM): 0.769
relative viability (NCI-H23; first compound 0.1581 µM): 0.389
relative viability (NCI-H23; first compound 0.5 µM): 0.753
relative viability (NCI-H460; first compound 0.005 µM): 0.401
relative viability (NCI-H460; first compound 0.01581 µM): 0.486
relative viability (NCI-H460; first compound 0.05 µM): 0.549
relative viability (NCI-H460; first compound 0.1581 µM): 0.551
relative viability (NCI-H460; first compound 0.5 µM): 0.529
relative viability (NCI-H522; first compound 0.005 µM): 0.731
relative viability (NCI-H522; first compound 0.01581 µM): 0.9
relative viability (NCI-H522; first compound 0.05 µM): 0.836
relative viability (NCI-H522; first compound 0.1581 µM): 0.845
relative viability (NCI-H522; first compound 0.5 µM): 0.74
relative viability (NCI-H727; first compound 0.005 µM): 0.339
relative viability (NCI-H727; first compound 0.01581 µM): 0.33
relative viability (NCI-H727; first compound 0.05 µM): 0.44
relative viability (NCI-H727; first compound 0.1581 µM): 0.328
relative viability (NCI-H727; first compound 0.5 µM): 0.451
relative viability (SK-LU-1; first compound 0.005 µM): 0.165
relative viability (SK-LU-1; first compound 0.01581 µM): 0.173
relative viability (SK-LU-1; first compound 0.05 µM): 0.162
relative viability (SK-LU-1; first compound 0.1581 µM): 0.19
relative viability (SK-LU-1; first compound 0.5 µM): 0.208
relative viability (SW 1573; first compound 0.005 µM): 0.534
relative viability (SW 1573; first compound 0.01581 µM): 0.566
relative viability (SW 1573; first compound 0.05 µM): 0.46
relative viability (SW 1573; first compound 0.1581 µM): 0.513
relative viability (SW 1573; first compound 0.5 µM): 0.381
